Assay results taken from the NIST ThermoML archive (doi:10.1007/s10765-014-1730-1).
Numbers after ± are expanded uncertainties.

Conditions: Vibrating tube method; for mass density: Liquid; for specific volume: Gas

Work on F/C=C\C(F)(F)F [(Z)-1,3,3,3-tetrafluoro-1-propene] yielded a mass density (283.15 K, 19923 kPa) of 1312.8 ± 1.7 kg/m3, a mass density (283.15 K, 30988 kPa) of 1335.2 ± 1.8 kg/m3 and a mass density (283.16 K, 188 kPa) of 1262.2 ± 1.7 kg/m3. For the same compound, the mass density (283.16 K, 714 kPa) was 1263.9 ± 1.7 kg/m3, the mass density (283.16 K, 1728 kPa) was 1266.9 ± 1.7 kg/m3 and the mass density (283.16 K, 2742 kPa) was 1270 ± 1.7 kg/m3. For the same compound, the mass density (283.16 K, 3759 kPa) was 1273 ± 1.7 kg/m3, the mass density (283.16 K, 4785 kPa) was 1275.9 ± 1.7 kg/m3 and the mass density (283.16 K, 5794 kPa) was 1278.6 ± 1.7 kg/m3. For the same compound, the mass density (283.16 K, 6808 kPa) was 1281.4 ± 1.7 kg/m3, the mass density (283.16 K, 7810 kPa) was 1284.1 ± 1.7 kg/m3 and the mass density (283.16 K, 8829 kPa) was 1286.8 ± 1.7 kg/m3. It also gave a mass density (283.16 K, 9831 kPa) of 1289.3 ± 1.7 kg/m3, a mass density (283.16 K, 10842 kPa) of 1291.8 ± 1.7 kg/m3 and a mass density (283.16 K, 11848 kPa) of 1294.3 ± 1.7 kg/m3. The mass density (283.16 K, 12862 kPa) was 1296.7 ± 1.7 kg/m3, the mass density (283.16 K, 13869 kPa) was 1299.3 ± 1.7 kg/m3 and the mass density (283.16 K, 14880 kPa) was 1301.5 ± 1.7 kg/m3. It also gave a mass density (283.16 K, 15887 kPa) of 1304 ± 1.7 kg/m3, a mass density (283.16 K, 16901 kPa) of 1306.2 ± 1.7 kg/m3 and a mass density (283.16 K, 17911 kPa) of 1308.5 ± 1.7 kg/m3. The mass density (283.16 K, 18920 kPa) was 1310.8 ± 1.7 kg/m3, the mass density (283.16 K, 20928 kPa) was 1315.1 ± 1.8 kg/m3 and the mass density (283.16 K, 21929 kPa) was 1317.3 ± 1.8 kg/m3. The mass density (283.16 K, 22938 kPa) was 1319.3 ± 1.8 kg/m3, the mass density (283.16 K, 23940 kPa) was 1321.4 ± 1.8 kg/m3 and the mass density (283.16 K, 24945 kPa) was 1323.4 ± 1.8 kg/m3. For the same compound, the mass density (283.16 K, 25950 kPa) was 1325.4 ± 1.8 kg/m3, the mass density (283.16 K, 26964 kPa) was 1327.4 ± 1.8 kg/m3 and the mass density (283.16 K, 27969 kPa) was 1329.6 ± 1.8 kg/m3. The mass density (283.16 K, 28981 kPa) was 1331.5 ± 1.8 kg/m3, the mass density (283.16 K, 29981 kPa) was 1333.4 ± 1.8 kg/m3 and the mass density (283.16 K, 32001 kPa) was 1337.1 ± 1.8 kg/m3. It also gave a mass density (283.16 K, 33010 kPa) of 1339 ± 1.8 kg/m3, a mass density (283.16 K, 34026 kPa) of 1340.8 ± 1.8 kg/m3 and a mass density (293.14 K, 707 kPa) of 1238 ± 1.7 kg/m3. The mass density (293.14 K, 3747 kPa) was 1248.2 ± 1.7 kg/m3, the mass density (293.14 K, 6783 kPa) was 1257.5 ± 1.7 kg/m3 and the mass density (293.14 K, 8789 kPa) was 1263.5 ± 1.7 kg/m3. For the same compound, the mass density (293.14 K, 21891 kPa) was 1296.5 ± 1.7 kg/m3, the mass density (293.14 K, 22907 kPa) was 1298.7 ± 1.8 kg/m3 and the mass density (293.14 K, 23918 kPa) was 1301 ± 1.8 kg/m3. It also gave a mass density (293.14 K, 24927 kPa) of 1303.2 ± 1.8 kg/m3, a mass density (293.14 K, 31982 kPa) of 1317.6 ± 1.8 kg/m3 and a mass density (293.15 K, 202 kPa) of 1236.1 ± 1.7 kg/m3. It also gave a mass density (293.15 K, 1711 kPa) of 1241.3 ± 1.7 kg/m3, a mass density (293.15 K, 2717 kPa) of 1244.8 ± 1.7 kg/m3 and a mass density (293.15 K, 4772 kPa) of 1251.4 ± 1.7 kg/m3. The mass density (293.15 K, 5777 kPa) was 1254.5 ± 1.7 kg/m3, the mass density (293.15 K, 7789 kPa) was 1260.4 ± 1.7 kg/m3 and the mass density (293.15 K, 9806 kPa) was 1266.1 ± 1.7 kg/m3. The mass density (293.15 K, 10808 kPa) was 1269.1 ± 1.7 kg/m3, the mass density (293.15 K, 11817 kPa) was 1271.7 ± 1.7 kg/m3 and the mass density (293.15 K, 12827 kPa) was 1274.3 ± 1.7 kg/m3. It also gave a mass density (293.15 K, 13836 kPa) of 1277 ± 1.7 kg/m3, a mass density (293.15 K, 14850 kPa) of 1279.6 ± 1.7 kg/m3 and a mass density (293.15 K, 15856 kPa) of 1282.1 ± 1.7 kg/m3. For the same compound, the mass density (293.15 K, 16856 kPa) was 1284.7 ± 1.7 kg/m3, the mass density (293.15 K, 17859 kPa) was 1287 ± 1.7 kg/m3 and the mass density (293.15 K, 18869 kPa) was 1289.6 ± 1.7 kg/m3. It also gave a mass density (293.15 K, 19873 kPa) of 1292 ± 1.7 kg/m3, a mass density (293.15 K, 20882 kPa) of 1294.3 ± 1.7 kg/m3 and a mass density (293.15 K, 25932 kPa) of 1305.2 ± 1.8 kg/m3. For the same compound, the mass density (293.15 K, 26941 kPa) was 1307.2 ± 1.8 kg/m3, the mass density (293.15 K, 27957 kPa) was 1309.7 ± 1.8 kg/m3 and the mass density (293.15 K, 28963 kPa) was 1311.6 ± 1.8 kg/m3. It also gave a mass density (293.15 K, 29972 kPa) of 1313.7 ± 1.8 kg/m3, a mass density (293.15 K, 30977 kPa) of 1315.7 ± 1.8 kg/m3 and a mass density (293.15 K, 32993 kPa) of 1319.5 ± 1.8 kg/m3. For the same compound, the mass density (293.15 K, 33996 kPa) was 1321.6 ± 1.8 kg/m3, the specific volume (303.15 K, 82.1 kPa) was 0.259 ± 0.005 m3/kg and the specific volume (303.15 K, 113.7 kPa) was 0.185 ± 0.003 m3/kg. It also gave a specific volume (303.15 K, 184.2 kPa) of 0.111 ± 0.001 m3/kg, a specific volume (303.15 K, 190.7 kPa) of 0.107 ± 0.001 m3/kg and a mass density (303.15 K, 1705 kPa) of 1215.3 ± 1.7 kg/m3. The mass density (303.15 K, 3735 kPa) was 1222.8 ± 1.7 kg/m3, the mass density (303.15 K, 4759 kPa) was 1226.3 ± 1.7 kg/m3 and the mass density (303.15 K, 7774 kPa) was 1236.5 ± 1.7 kg/m3. For the same compound, the mass density (303.15 K, 8779 kPa) was 1239.7 ± 1.7 kg/m3, the mass density (303.15 K, 10782 kPa) was 1245.9 ± 1.7 kg/m3 and the mass density (303.15 K, 12803 kPa) was 1251.9 ± 1.7 kg/m3. The mass density (303.15 K, 13813 kPa) was 1254.8 ± 1.7 kg/m3, the mass density (303.15 K, 14822 kPa) was 1257.6 ± 1.7 kg/m3 and the mass density (303.15 K, 15833 kPa) was 1260.3 ± 1.7 kg/m3. The mass density (303.15 K, 16844 kPa) was 1263 ± 1.7 kg/m3, the mass density (303.15 K, 17858 kPa) was 1265.7 ± 1.7 kg/m3 and the mass density (303.15 K, 18870 kPa) was 1268.3 ± 1.7 kg/m3. For the same compound, the mass density (303.15 K, 19882 kPa) was 1270.9 ± 1.7 kg/m3, the mass density (303.15 K, 20888 kPa) was 1273.4 ± 1.7 kg/m3 and the mass density (303.15 K, 21903 kPa) was 1275.9 ± 1.7 kg/m3. The mass density (303.15 K, 22911 kPa) was 1278.3 ± 1.7 kg/m3, the mass density (303.15 K, 23920 kPa) was 1280.7 ± 1.7 kg/m3 and the mass density (303.15 K, 24935 kPa) was 1283 ± 1.7 kg/m3. For the same compound, the mass density (303.15 K, 25951 kPa) was 1285.4 ± 1.8 kg/m3, the mass density (303.15 K, 26951 kPa) was 1287.7 ± 1.8 kg/m3 and the mass density (303.15 K, 27967 kPa) was 1289.9 ± 1.8 kg/m3. It also gave a mass density (303.15 K, 28968 kPa) of 1292.1 ± 1.8 kg/m3, a mass density (303.15 K, 29985 kPa) of 1294.3 ± 1.8 kg/m3 and a mass density (303.15 K, 30991 kPa) of 1296.4 ± 1.8 kg/m3. The mass density (303.15 K, 31993 kPa) was 1298.6 ± 1.8 kg/m3, the mass density (303.15 K, 32995 kPa) was 1300.6 ± 1.8 kg/m3 and the mass density (303.15 K, 34000 kPa) was 1302.7 ± 1.8 kg/m3.
